One assay deals with CD36 (Rattus norvegicus (Rat), UniProt Q07969). In words: CD36 receptor covalent photolabelling binding assay, competition with [125I]Tyr-Bpa-Ala-hexarelin on rat cardiac membranes. As to conditions: for binding activity/affinity at CD36 in words: compared with parent peptide GHRP-6 or hexarelin. The procedure: The hearts from Sprague Dawley rats (300 g-325 g) from Charles River, used as a source of cardiac membranes, were prepared as follows: the heart was washed with ice-cold saline, and fatty and connective tissue was removed. The tissue was cut into small pieces with scissors and placed in a Sorvall centrifuge tube containing 5 ml/g of fresh tissue of Buffer A (10 mM NaHCO3, 5 mM NaN3, 10 μM Pefabloc, 0.1 μM Aprotinin, 1 μM Pepstatin A, 1 μM Leupeptin, pH 7.0). The suspension was homogenized with a Polytron at low speed, 3×15 sec. The homogenate was centrifuged at 8 700×g for 20 min and the supernatant was put on ice. The pellet was resuspended and homogenized with a Glass-teflon Potter by 5 strokes. The homogenate was centrifuged at 8 700×g for 10 min and this supernatant was combined with the first supernatant. The supernatant fluid was centrifuged at 35 000×g for 20 min, yielding a second pellet fraction that was suspended thoroughly in a glass homogenizer with a Teflon pestle in 20 ml/g of fresh tissue of Buffer B (20 mM Tris-maleate, 0.6M KCl, pH 6.8). The resulting suspension was centrifuged again at 35 000×g for 60 min. The third pellet fraction was resuspended thoroughly in a glass homogenizer with a Teflon pestle in 20 ml/g of fresh tissue of Buffer C (10 mM Tris/HCl buffer pH 7.4) followed with another centrifugation at 35 000×g for 60 min. The harvested precipitate was then suspended in a small volume (1-2 ml/g of fresh tissue) of 50 mM Tris/HCl buffer pH 7.4) containing 2 mM EGTA. The resulting membrane preparation was frozen at −80° C. Protein concentration was determined with bicinchoninic acid (BCA) method, using BSA as standard.
Chain of CD36 (Q07969 whole entry): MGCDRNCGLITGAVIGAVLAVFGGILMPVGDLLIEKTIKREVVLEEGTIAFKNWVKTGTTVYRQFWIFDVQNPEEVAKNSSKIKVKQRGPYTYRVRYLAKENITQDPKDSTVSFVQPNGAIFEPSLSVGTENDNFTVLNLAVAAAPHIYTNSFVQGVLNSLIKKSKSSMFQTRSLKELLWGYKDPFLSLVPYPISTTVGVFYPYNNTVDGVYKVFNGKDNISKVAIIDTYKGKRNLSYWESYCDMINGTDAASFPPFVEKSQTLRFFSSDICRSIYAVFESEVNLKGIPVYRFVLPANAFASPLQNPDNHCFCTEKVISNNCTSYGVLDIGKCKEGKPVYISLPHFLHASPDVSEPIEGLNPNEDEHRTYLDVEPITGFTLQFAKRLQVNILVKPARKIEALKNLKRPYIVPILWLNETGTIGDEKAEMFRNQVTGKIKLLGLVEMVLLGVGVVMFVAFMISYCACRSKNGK
The iodination procedure was performed in the darkness. […] The reaction was started by adding 5 ul (3 nmol) of H2O2. The incubation was carried out at 22° C. for 5 min. The addition of H2O2 was repeated twice with 5 min incubation each time. The reaction was stopped with the addition of 1.4 ml of 0.1% TFA. The iodinated peptide was purified on a reverse-phase Vydac C18 column with a 60 min linear gradient (1 ml/min) from 20% to 50% acetonitrile (90%) in 0.1% TFA (10%).
Nonspecific binding was defined as binding not displaced by 50 μM corresponding peptide. All peptide containing solutions were diluted in Buffer B. Buffer A and B were degassed under vacuum, and used in capped tubes in order to minimize lipid peroxydation. Before the incubation period, all tubes were put under a low flow of nitrogen. All material was kept on ice and the binding assay was performed in darkness. After an incubation period of 60 min at 22° C. […] After centrifugation at 12 000×g for 15 minutes, the pellets were resuspended in 150 μl of sample buffer (62 mM Tris-HCl, pH 6.8, 2% SDS, 10% glycerol, 15% 2-mercapto-ethanol, and 0.05% bromophenol blue), and boiled for 5 min prior to being subjected to electrophoresis. Proteins (200 μg/100 μl) were separated on 7.5% SDS-PAGE (45 V overnight). The gels resulting from SDS/PAGE were fixed, colored in Coomassie Brilliant Blue R-250, dried, exposed to a storage phosphor intensifying screen (Amersham Biosciences), and analysed by using a Typhoon PhosphorImager (Amersham Biosciences) and ImageQuant 5.0 software to establish competition curves. Protein bands were quantified by densitometry. The covalent binding signal of 87 kDa was analyzed by densitometry using Typhoon Phospholmager™ (Typhoon, Amersham Biosciences) and ImageQuant 5.0® software to set competition curves.
Specific binding activities were defined as the ratio of the density of the protein band to that of a non-specific band. Results are expressed as the percentage of the density of the […] to that of the total binding band.

Another assay deals with human GHS-R1a (Homo sapiens (Human), UniProt Q92847). In words: GHS-R1a binding assay, competition with 125I-ghrelin on membranes of LLC-PK1 cells expressing human GHS-R1a. The settings on record: for binding affinity for GHS-R1a receptor in words: compared with GHRP-6. The procedure: Rat ghrelin was radio iodinated with Na^125I using the lodo-Beads iodination reagent (Pierce #28665). Briefly, an lodo-bead was incubated with 2 mCi of Na^125I (Amersham) in 100 μL of 50 mM sodium phosphate buffer, pH 7.0 for 5 min at 22° C. The reaction was started by adding 20 nmol of the peptide (1 mM in 0.1 M acetic acid). The tube was incubated for 10 min at 22° C. The iodination was terminated by adding 1 mL of 0.1% TFA. The mono-iodinated peptide was purified by reverse-phase HPLC using a Vydac C18 ([…]) column (30 cm×0.39 cm) in combination with a binary elution system of (A) 0.1% TFA in H2O and (B) 0.1% TFA, 10% H2O, 90% acetonitrile. Fractions of 0.5 mL were collected and analyzed by its radioactive content.
Chain of human GHS-R1a (Q92847 whole entry): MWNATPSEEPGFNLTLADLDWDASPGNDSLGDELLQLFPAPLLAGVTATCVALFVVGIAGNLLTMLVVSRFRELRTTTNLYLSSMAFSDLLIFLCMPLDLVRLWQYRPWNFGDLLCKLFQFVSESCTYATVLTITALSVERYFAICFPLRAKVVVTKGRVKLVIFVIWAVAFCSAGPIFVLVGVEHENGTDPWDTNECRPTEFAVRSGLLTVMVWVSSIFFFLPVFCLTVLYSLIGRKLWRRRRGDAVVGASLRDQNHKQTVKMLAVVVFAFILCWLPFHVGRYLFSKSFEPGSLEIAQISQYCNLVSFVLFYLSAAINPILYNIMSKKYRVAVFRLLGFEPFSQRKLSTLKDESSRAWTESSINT
Cells (1.4×10^6) were plated in 100 mm plates and transfected 24 h later with pCDNA3.1-hGHS-R1a (UMR cDNA Resource Center #GHSR0A0000) following the CaHPO4 precipitation method. Briefly, 40 μg of plasmid DNA was diluted in 500 μL of sterile H2O and added to an equal volume of a 4× CaCl2, pH 7.9 solution (2 mM Tris-HCl, 0.2 mM EDTA, 500 mM CaCl2). The mixture was then added slowly with air bubbles to 1 mL of 2× Hepes-buffered saline, pH 7.1 (50 mM Hepes, 280 mM NaCl, 1.5 mM Na2HPO4). After 30 min at room temperature, 1 mL was distributed evenly over the cells and let overnight. The medium was changed the next morning and the membrane preparation was made two days later.
Cells were washed twice with PBS and once with ice-cold homogenization buffer (50 mM Tris-HCl, pH 7.3, 5 mM MgCl2, 2.5 mM EDTA, 30 μg/ml bacitracin). Cells were scraped and harvested in 1.5 mL tubes. Cells were then lysed by temperature shock with two freeze/thaw cycles in liquid nitrogen. The tubes were centrifuged at 14000 g for 20 min. Pellets were resuspended in homogenization buffer and stored at −80° C. until used. Total protein concentrations were determined with the BCA protein assay kit (Pierce).
Competition experiments were performed by incubating 50 μg of LLC-PK1 membranes expressing human GHS-R1a with 15 fmol of ^125I-Ghrelin and increasing concentrations of unlabeled ghrelin or with increasing concentrations of azapeptides derivatives in 0.5 mL of binding buffer. Bound radiolabelled ligand was separated from free by filtration on Whatman GF/C filters pretreated with a 1% polyethylenimine solution. Filters were washed with 2×3 mL of washing buffer (50 mM Tris-HCl, pH 7.3, 10 mM MgCl2, 2.5 mM EDTA, 0.015% Triton X-100). Filters were counted in a LKB gamma counter. Curves were analyzed using Prism software (GraphPad Software Inc).

Setting [1] is: Table 3, rat cardiac membranes, [125I]Tyr-Bpa-Ala-hexarelin as radioligand, read-out: IC50, binding affinity of aza peptide derivatives towards CD36.
[2] abbreviates: Table 5, read-out: IC50 Binding GHS-R1a.
The mark [3] stands for this setting: Table 6, read-out: IC50 Binding CD36.
[4] abbreviates: Table 4, LLCPK-1 membranes overexpressing GHS-R1a, radioiodinated (1-28) rat ghrelin as tracer, read-out: EC50 (text: IC50 values from competition curves in GHS-R1a radioreceptor assay).

Where two headings read alike, the source gives them in different places. Starred links: 1 amine or outer side, 2 acyl side, 3 side chain; linkers in the order of their positions; H or OH if unused. Non-standard residues stand in square brackets, D forms with d. Residues, ends and D or L forms follow the SMILES beside them. azaTyr = O=C(N(Cc1ccc(O)cc1)N[*:1])[*:2]; X3 = O=C(N(Cc1cccc2ccccc12)N[*:1])[*:2]; azaPhe = O=C(N(Cc1ccccc1)N[*:1])[*:2]; X2 = O=C(N(CCc1ccccc1)N[*:1])[*:2]; azaLeu = CC(C)CN(N[*:1])C(=O)[*:2]; azaGly = NNC(=O)O

Broadly, the IC50 is the concentration at which inhibition is half-maximal. On to `C[C@H](NC(=O)N(Cc1cccc2ccccc12)NC(=O)[C@@H](N)Cc1cnc[nH]1)C(=O)N[C@@H](Cc1c[nH]c2ccccc12)C(=O)N[C@H](Cc1ccccc1)C(=O)N[C@@H](CCCCN)C(N)=O` [DBG253-10, His-azaNal-1-Ala-Trp-D-Phe-Lys-NH2] (H-H[X3]AW[dF]K-NH2), for which the half-maximal inhibitory concentration (IC50) at CD36 (setting [1]) is 1930 µM.

For the compound `C[C@H](NC(=O)[C@@H](Cc1c[nH]c2ccccc12)NC(=O)[C@@H](N)Cc1ccccc1)C(=O)NN(Cc1ccc(O)cc1)C(=O)N[C@H](Cc1ccccc1)C(=O)N[C@@H](CCCCN)C(N)=O` [ZS554-F29, Phe-D-Trp-Ala-azaTyr-D-Phe-Lys-NH2] (H-F[dW]A[azaTyr][dF]K-NH2), the results for the IC50 on human GHS-R1a (setting [2]) and on CD36 (setting [3]) were greater than 10 µM and 11.8 µM, respectively.

Take `C[C@H](N)C(=O)NN(Cc1ccccc1)C(=O)N[C@@H](C)C(=O)N[C@@H](Cc1c[nH]c2ccccc12)C(=O)N[C@H](Cc1ccccc1)C(=O)N[C@@H](CCCCN)C(N)=O` [CP-1A (iv), Ala-azaPhe-Ala-Trp-D-Phe-Lys-NH2] (H-A[azaPhe]AW[dF]K-NH2): the IC50 is greater than 10 µM at human GHS-R1a (setting [2]) and 5.02 µM at CD36 (setting [3]). Besides, the “binding affinity for GHS-R1a receptor in words” value (from here on “binding affinity”) at human GHS-R1a was “decreased drastically”. For the same compound, on CD36, the “binding activity/affinity at CD36 in words” value (“binding activity/affinity” for short) is “without major change”.

For the compound `C[C@H](NC(=O)[C@@H](Cc1c[nH]c2ccccc12)NC(=O)[C@@H](N)Cc1cnc[nH]1)C(=O)N[C@@H](Cc1ccc(O)cc1)C(=O)N[C@H](Cc1ccccc1)C(=O)N[C@@H](CCCCN)C(N)=O` [DBG253-7, His-D-Trp-Ala-Tyr-D-Phe-Lys-NH2] (H-H[dW]AY[dF]K-NH2), the results for the IC50 on human GHS-R1a (setting [4]) and at CD36 (setting [1]) were 0.771 µM and 13.2 µM, respectively.

Turning to `C[C@H](NC(=O)[C@@H](Cc1c[nH]c2ccccc12)NC(=O)[C@@H](N)Cc1cnc[nH]1)C(=O)NN(CCc1ccccc1)C(=O)N[C@H](Cc1ccccc1)C(=O)N[C@@H](CCCCN)C(N)=O` [DBG253-5, His-D-Trp-Ala-azahomoPhe-D-Phe-Lys-NH2] (H-H[dW]A[X2][dF]K-NH2), the figures for the IC50 at human GHS-R1a (setting [4]) and on CD36 (setting [1]) were 3.74 µM and greater than 10 µM, respectively.

Regarding `C[C@H](N)C(=O)N[C@H](Cc1c[nH]c2ccccc12)C(=O)N[C@@H](C)C(=O)NN(Cc1ccc(O)cc1)C(=O)N[C@H](Cc1ccccc1)C(=O)N[C@@H](CCCCN)C(N)=O` [ZS555-F40, Ala-D-Trp-Ala-azaTyr-D-Phe-Lys-NH2] (H-A[dW]A[azaTyr][dF]K-NH2), the IC50 on human GHS-R1a (setting [2]) is greater than 10 µM; at CD36 (setting [3]), 2.95 µM. For the same compound, the “binding affinity” value on human GHS-R1a is listed as “decreased drastically”. In addition, on CD36, the “binding activity/affinity” value is listed as “without major change”.

For `CC(C)CN(NC(=O)[C@@H](Cc1c[nH]c2ccccc12)NC(=O)[C@@H](N)Cc1cnc[nH]1)C(=O)N[C@@H](Cc1c[nH]c2ccccc12)C(=O)N[C@H](Cc1ccccc1)C(=O)N[C@@H](C)C(N)=O` [CP-2B (i), His-D-Trp-azaLeu-Trp-D-Phe-Ala-NH2] (H-H[dW][azaLeu]W[dF]A-NH2), the IC50 at human GHS-R1a (setting [2]) was determined as 8.17 µM; at CD36 (setting [3]), 9.02 µM. The “binding activity/affinity” value on CD36 was “retained significant activity similar to the parent peptide”.

Take `C[C@H](NC(=O)[C@H](C)NC(=O)N(Cc1ccccc1)NC(=O)[C@@H](N)Cc1cnc[nH]1)C(=O)N[C@H](Cc1ccccc1)C(=O)N[C@@H](CCCCN)C(N)=O` [CP-1A (iii), (D/L)His-azaPhe-Ala-Ala-D-Phe-Lys-NH2] (H-H[azaPhe]AA[dF]K-NH2): the IC50 on human GHS-R1a (setting [2]) was greater than 10 µM; on CD36 (setting [3]) it was 27.6 µM.

With `CC(C)CN(NC(=O)[C@@H](Cc1c[nH]c2ccccc12)NC(=O)[C@@H](N)Cc1cnc[nH]1)C(=O)N[C@@H](Cc1c[nH]c2ccccc12)C(=O)N[C@H](C)C(=O)N[C@@H](CCCCN)C(N)=O` [CP-2B (ii), His-D-Trp-azaLeu-Trp-D-Ala-Lys-NH2] (H-H[dW][azaLeu]W[dA]K-NH2), the IC50 was greater than 10 µM at human GHS-R1a (setting [2]) and 4.94 µM on CD36 (setting [3]). Besides, on human GHS-R1a, the “binding affinity” value was “decreased drastically”. Moreover, the “binding activity/affinity” value at CD36 is reported as “retained significant activity similar to the parent peptide”; on CD36 (listed as CP-2B(ii)) it was “without major change”.

Turning to `C[C@H](NC(=O)[C@@H](Cc1ccccc1)NC(=O)[C@H](Cc1c[nH]c2ccccc12)NC(=O)[C@H](C)NC(=O)N(Cc1ccccc1)NC(=O)[C@@H](N)Cc1cnc[nH]1)C(N)=O` [CP-1A (i), His-azaPhe-Ala-Trp-D-Phe-Ala-NH2] (H-H[azaPhe]AW[dF]A-NH2), the IC50 on human GHS-R1a (Table 5, listed as CP-1A(i), read-out: IC50 Binding GHS-R1a) was greater than 10 µM; at human GHS-R1a (setting [2]), 51 µM; at CD36 (setting [3]), greater than 10 µM.

Consider `NCCCC[C@H](NC(=O)[C@@H](Cc1ccccc1)NC(=O)[C@H](Cc1c[nH]c2ccccc12)NC(=O)NNC(=O)[C@@H](Cc1c[nH]c2ccccc12)NC(=O)[C@@H](N)Cc1cnc[nH]1)C(N)=O` [DBG188p, His-D-Trp-azaGly-Trp-D-Phe-Lys-NH2] (H-H[dW][azaGly]W[dF]K-NH2), for which the concentration for half-maximal inhibition (IC50) on CD36 (setting [1]) was determined as 9.61 µM. In addition, the “binding activity/affinity” value on CD36 was “retained significant activity similar to the parent peptide”.

Take `C[C@H](N)C(=O)N[C@H](Cc1c[nH]c2ccccc12)C(=O)NNC(=O)N[C@@H](Cc1c[nH]c2ccccc12)C(=O)N[C@H](Cc1ccccc1)C(=O)N[C@@H](CCCCN)C(N)=O` [CP-2A(v), Ala-D-Trp-azaGly-Trp-D-Phe-Lys-NH2] (H-A[dW][azaGly]W[dF]K-NH2): the IC50 at CD36 (setting [3]) came to 8.76 µM.

Values taken from patent US9708370B2, “Azapeptides as CD36 binding compounds” (VALORISATION-RECHERCHE, LIMITED PARTNERSHIP, priority 2007, dated 2017).
